In patent US11919883B2, “Metalloenzyme inhibitor compounds” (Ji Xing Pharmaceuticals Hong Kong Limited, priority 2016, dated 2024):
pIC50: −log10 of the molar value. Like-named read-outs stand apart in the source and are kept apart here.

Assays:
[1] = Rat liver microsome stability; assay type: in vitro ADME; settings: for Rat LM Stability: % Compound remaining at 65 min in rat liver microsomes
[2] = target: T1, recombinant human CYP11B2 (Homo sapiens, UniProt P19099); test: CYP11B2 enzyme assay, enzyme enriched microsomes from V79-4 cells, aldosterone by LC-MS; assay type: biochemical; settings: for Selectivity: CYP11B1 IC50/CYP11B2 IC50
T1 construct: made in house; host or cells: V79-4 cells (enzyme enriched microsomal fraction of cell lysates)
T1 sequence (P19099 25-503): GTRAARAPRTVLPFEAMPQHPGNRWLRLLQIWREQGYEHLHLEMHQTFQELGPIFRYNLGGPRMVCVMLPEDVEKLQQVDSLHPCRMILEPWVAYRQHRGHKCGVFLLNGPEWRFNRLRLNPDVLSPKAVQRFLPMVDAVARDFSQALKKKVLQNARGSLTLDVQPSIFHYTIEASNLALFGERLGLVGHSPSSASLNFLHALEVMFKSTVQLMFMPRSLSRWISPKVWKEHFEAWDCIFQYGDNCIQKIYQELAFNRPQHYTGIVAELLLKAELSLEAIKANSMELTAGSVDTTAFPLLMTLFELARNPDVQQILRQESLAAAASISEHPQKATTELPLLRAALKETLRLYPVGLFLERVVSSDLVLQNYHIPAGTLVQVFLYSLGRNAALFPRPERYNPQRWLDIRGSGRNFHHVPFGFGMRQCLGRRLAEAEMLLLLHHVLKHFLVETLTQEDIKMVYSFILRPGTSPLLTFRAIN
Procedure: (§1) An enzyme enriched microsomal fraction was prepared from cellular lysates and subsequently used as the enzyme source for determining inhibitor IC50s. […] Enzyme assays for inhibitor screening employed CYP11B2 and CYP11B1 enzyme enriched microsomes and were run at the Km of the respective substrates. Products of the enzyme reactions, aldosterone for CYP11B2 or cortisol for CYP11B1, were measured by LC-MS. Assays were run under conditions of less than 20% substrate turnover. Inhibitor IC50s were generated by determining the product formation in the absence or presence of inhibitor at various concentrations. In the absence of the test compound, the product formed (Pt) in each data set was defined as 100% activity. In the absence of enzyme, the product formed (Pb) in each data set was defined as 0% activity. The percent activity in the presence of each inhibitor was calculated according to the following equation: % activity=(P−Pb)/(Pt−Pb), where P=the product formed in the presence of the inhibitor.

[3] = target: T2, recombinant human CYP11B1 (Homo sapiens, UniProt P15538); test: CYP11B1 enzyme assay, enzyme enriched microsomes from V79-4 cells, cortisol by LC-MS; assay type: biochemical
T2 construct: made in house; host or cells: V79-4 cells (enzyme enriched microsomal fraction of cell lysates)
T2 sequence (P15538 25-503): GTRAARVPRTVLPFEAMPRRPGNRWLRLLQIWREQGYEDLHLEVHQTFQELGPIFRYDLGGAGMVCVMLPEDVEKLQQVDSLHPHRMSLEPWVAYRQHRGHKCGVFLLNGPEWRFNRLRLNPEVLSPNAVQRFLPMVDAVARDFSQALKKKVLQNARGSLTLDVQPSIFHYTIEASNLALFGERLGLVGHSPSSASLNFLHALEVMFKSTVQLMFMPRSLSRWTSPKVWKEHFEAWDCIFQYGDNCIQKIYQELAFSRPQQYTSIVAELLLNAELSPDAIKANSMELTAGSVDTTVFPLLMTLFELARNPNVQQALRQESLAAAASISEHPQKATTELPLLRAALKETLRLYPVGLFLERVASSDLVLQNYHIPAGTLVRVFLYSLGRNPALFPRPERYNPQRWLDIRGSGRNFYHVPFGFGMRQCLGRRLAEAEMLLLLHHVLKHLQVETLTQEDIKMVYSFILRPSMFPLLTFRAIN
Procedure: as §1

[4] = Cyno liver microsome stability; assay type: in vitro ADME, cynomolgus monkey; settings: for Cyno LM Stability: % Compound remaining at 65 min in cyno liver microsomes; for metabolic stability when exposed to cynomolgus monkey liver microsomes: compared with pyridine counterpart Example 76
[5] = Cyno half life after PO dose; parameters: species or system cynomolgus monkeys; settings: cynomolgus monkey; for half-life: in vivo, 1 mg/kg PO dose, read-out: Cyno T½ (converted)
[6] = IC50 ranges, run at Km of 11-deoxycorticosterone, read-out: hCYP11B2 IC50
[7] = Table 3 comparison, read-out: CYP11B2 IC50
[8] = IC50 ranges, run at Km of 11-deoxycortisol, read-out: hCYP11B1 IC50
[9] = Table 3 comparison, read-out: CYP11B1 IC50

Question: With `Fc1ccc2nc(-c3cncnc3)n(C3CC3)c2c1` [Example 1, 1-Cyclopropyl-6-fluoro-2-(pyrimidin-5-yl)-1H-benzo[d]imidazole] as the molecule, how does the “Rat LM Stability” value [1] read?
Answer: 0%

Question: And the Selectivity [2]?
Answer: 134

Question: And the pIC50 [2, 6]?
Answer: 7.00 to 9.00

Question: What about the pIC50 [2, 7] of the same molecule?
Answer: 7.40

Question: And the pIC50 [3, 8]?
Answer: 5.00 to 6.00

Question: And the pIC50 [3, 9]?
Answer: 5.27

Question: And the “Cyno LM Stability” value [4]?
Answer: 70%

Question: Which results are given for `Fc1cc2nc(-c3cncnc3C(F)F)n(C3CC3)c2cc1F` [Example 27, 1-Cyclopropyl-2-(4-(difluoromethyl)pyrimidin-5-yl)-5,6-difluoro-1H-benzo[d]imidazole]?
Answer: in vivo half-lives in cynomolgus monkeys [5]: long in vivo half-lives; half-life [5]: 16.9 h; pIC50 [2, 6]: 7.00 to 9.00; pIC50 [2, 7]: 7.77; pIC50 [3, 8]: 5.00 to 6.00; pIC50 [3, 9]: 5.33; Cyno LM Stability [4]: 106%; metabolic stability when exposed to cynomolgus monkey liver microsomes [4]: much greater metabolic stability

Question: With `Fc1cc2nc(-c3cncnc3C(F)(F)F)n(C3CC3)c2cc1F` [Example 30, 1-Cyclopropyl-5,6-difluoro-2-(4-(trifluoromethyl)pyrimidin-5-yl)-1H-benzo[d]imidazole] as the molecule, how does the “in vivo half-lives in cynomolgus monkeys” value [5] read?
Answer: long in vivo half-lives

Question: And the half-life [5]?
Answer: 37.5 h

Question: And the “Rat LM Stability” value [1]?
Answer: 108%

Question: What about the “metabolic stability when exposed to rat liver microsomes” value ([1]; compared with pyridine counterpart Example 76) of the same molecule?
Answer: much greater metabolic stability

Question: What about the Selectivity [2] of the same molecule?
Answer: 199

Question: And the pIC50 [2, 6]?
Answer: 7.00 to 9.00

Question: And the pIC50 [2, 7]?
Answer: 7.49

Question: What about the pIC50 [3, 8] of the same molecule?
Answer: 5.00 to 6.00

Question: What about the pIC50 [3, 9] of the same molecule?
Answer: 5.20

Question: What about the “Cyno LM Stability” value [4] of the same molecule?
Answer: 99%

Question: And the “metabolic stability when exposed to cynomolgus monkey liver microsomes” value [4]?
Answer: much greater metabolic stability

Question: With `Cc1ncncc1-c1nc2cc(F)c(F)cc2n1C1CC1` [Example 44, 1-Cyclopropyl-5,6-difluoro-2-(4-methylpyrimidin-5-yl)-1H-benzo[d]imidazole] as the molecule, how does the “Rat LM Stability” value [1] read?
Answer: 96%

Question: What about the Selectivity [2] of the same molecule?
Answer: 244

Question: What about the pIC50 [2, 6] of the same molecule?
Answer: 7.00 to 9.00

Question: And the pIC50 [2, 7]?
Answer: 7.77

Question: What about the pIC50 [3, 8] of the same molecule?
Answer: 5.00 to 6.00

Question: What about the pIC50 [3, 9] of the same molecule?
Answer: 5.38

Question: And the “Cyno LM Stability” value [4]?
Answer: 72%
